Results on 22 compounds are retold here after patent US8455475B2 (Gruenenthal GmbH, priority 2009, dated 2013).

SMILES strings stand for the structures. Structures can show the parent of a compound that is named as a salt.

Experiment [1] concerns the target T1, human B1R (bradykinin receptor 1) (Homo sapiens, UniProt P46663).
T1 construct: expressed in transfected cells; host or cells: CHO K1 cells
T1 sequence (P46663 1-353): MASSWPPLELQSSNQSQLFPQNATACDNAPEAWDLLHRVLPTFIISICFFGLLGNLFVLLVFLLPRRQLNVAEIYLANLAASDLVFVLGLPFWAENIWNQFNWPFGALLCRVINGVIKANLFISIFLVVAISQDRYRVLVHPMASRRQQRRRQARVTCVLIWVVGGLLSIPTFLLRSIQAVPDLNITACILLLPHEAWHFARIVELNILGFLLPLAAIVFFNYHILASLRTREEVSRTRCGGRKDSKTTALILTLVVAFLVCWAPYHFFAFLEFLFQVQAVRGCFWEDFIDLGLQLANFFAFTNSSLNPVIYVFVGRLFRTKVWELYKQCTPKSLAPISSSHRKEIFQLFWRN
The experiment can be described thus: FLIPR Ca2+ assay (Fluo-4) on CHO K1 cells stably transfected with the human B1R gene (hB1R cells): % inhibition at 10 μM / IC50, agonist Lys-Des-Arg9-bradykinin. To be noted: CHO-K1, human B1R. Type of experiment: cell-based. The method, boiled down: (§1)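 Loading with Fluo-4 occurs for 60 min at 37 °C, or alternatively in buffer A, before FLIPR measurement. Compounds are applied, incubated 10–20 min, and then the EC80 agonist is added. Antagonism appears as reduced peak Ca2+ signal relative to maximal inhibition.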

In experiment [2] the target is T2, rat B1R (bradykinin receptor 1) (Rattus norvegicus, UniProt P97583).
T2 construct: expressed in transfected cells; host or cells: CHO K1 cells
T2 sequence (P97583 1-337): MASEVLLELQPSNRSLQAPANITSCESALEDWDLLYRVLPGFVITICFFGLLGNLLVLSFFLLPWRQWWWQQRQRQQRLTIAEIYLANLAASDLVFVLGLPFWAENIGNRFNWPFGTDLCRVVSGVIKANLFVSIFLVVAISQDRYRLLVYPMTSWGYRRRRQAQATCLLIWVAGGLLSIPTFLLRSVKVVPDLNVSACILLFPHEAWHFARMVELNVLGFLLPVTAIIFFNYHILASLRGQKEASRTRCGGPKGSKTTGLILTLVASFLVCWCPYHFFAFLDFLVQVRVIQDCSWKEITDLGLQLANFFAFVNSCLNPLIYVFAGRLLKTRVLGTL
The experiment can be described thus: FLIPR Ca2+ assay (Fluo-4) on CHO K1 cells stably transfected with the B1R gene of the rat (rB1R cells): % inhibition at 10 μM / IC50, agonist Des-Arg9-bradykinin. It is filed as cell-based. To be noted: CHO-K1, rat B1R. The method, boiled down: as §1

As for `Cc1ccc(F)c(C(=O)NC2CCc3ccc(C(=O)N4CCC5(CC4)CCN(c4ccncc4)CC5)cc32)c1Cl` (centres unmarked) [IND_CC-214, 2-Chloro-6-fluoro-3-methyl-N-[6-(9-pyridin-4-yl-3,9-diazaspiro[5.5]undecane-3-carbonyl)-2,3-dihydro-1H-inden-1-yl]-benzamide], the inhibition at 10 µM in experiment [1] came out at 83%; in experiment [2] it was 102%.
With `COc1cc(C)c(S(=O)(=O)N[C@H]2CCCc3ccc(C(=O)N4CCC5(CCN(c6ccncc6)CC5)C4)cc32)c(C)c1` [Example H-18, 4-methoxy-2,6-dimethyl-N-[(1S)-7-(8-pyridin-4-yl-3,8-diazaspiro[4.5]decane-3-carbonyl)-1,2,3,4-tetrahydro-naphthalen-1-yl]-benzenesulfonic acid amide], the inhibition at 10 µM in experiment [1] came out at 96%; in experiment [2] it was 104%.
Consider `N#Cc1ccccc1CN1CCC2(CC1)CCN(C(=O)c1ccc3c(c1)C(NC(=O)c1ccccc1Cl)CC3)CC2` (centres unmarked) [IND_CC-535, 2-Chloro-N-[6-[9-[(2-cyano-phenyl)-methyl]-3,9-diazaspiro[5.5]undecane-3-carbonyl]-2,3-dihydro-1H-inden-1-yl]-benzamide], for which the inhibition at 10 µM in experiment [1] came to 49%; in experiment [2], 90%.
In the case of `N#Cc1ccc(N2CCC3(CCN(C(=O)c4ccc5c(c4)[C@H](NC(=O)c4ccccc4Cl)CC5)C3)CC2)cc1` [Example H-140, 2-Chloro-N-[(1R)-6-[8-(4-cyano-phenyl)-3,8-diazaspiro[4.5]decane-3-carbonyl]-2,3-dihydro-1H-inden-1-yl]-benzamide], the inhibition at 10 µM in experiment [1] was 70%; in experiment [2], 100%.
Consider `O=C(N[C@@H]1CCc2ccc(C(=O)N3CCC4(CCCN(c5ccncc5)C4)CC3)cc21)c1ccccc1Cl` [Example H-26, 2-chloro-N-[(1R)-6-(8-pyridin-4-yl-3,8-diazaspiro[5.5]undecane-3-carbonyl)-2,3-dihydro-1H-inden-1-yl]-benzamide], for which the inhibition at 10 µM in experiment [1] turned out to be 46%; in experiment [2] it was 101%.
Taken in the same sequence, the figures for `O=C(N[C@@H]1CCc2ccc(C(=O)N3CCC4(CCN(c5ccncc5)CC4)C3)cc21)c1c(F)cccc1Cl` [Example H-109, 2-Chloro-6-fluoro-N-[(1R)-6-(8-pyridin-4-yl-3,8-diazaspiro[4.5]decane-3-carbonyl)-2,3-dihydro-1H-inden-1-yl]-benzamide] were 100% and 109%.
Regarding `O=C(NC1CCc2ccc(C(=O)N3CCC4(CC3)CCN(c3ccncc3)CC4)cc21)c1cc(Cl)ccc1C(F)(F)F` (centres unmarked) [IND_CC-302, 5-Chloro-N-[6-(9-pyridin-4-yl-3,9-diazaspiro[5.5]undecane-3-carbonyl)-2,3-dihydro-1H-inden-1-yl]-2-(trifluoromethyl)-benzamide], the inhibition at 10 µM worked out at 99% in experiment [1] and 106% in experiment [2].
Consider `O=C(N[C@@H]1CCc2cc(F)c(C(=O)N3CCC4(CCN(c5ccncc5)CC4)C3)cc21)c1ccccc1Cl` [Example H-64, 2-Chloro-N-[(1R)-5-fluoro-6-(8-pyridin-4-yl-3,8-diazaspiro[4.5]decane-3-carbonyl)-2,3-dihydro-1H-inden-1-yl]-benzamide hydrochloride], for which the inhibition at 10 µM in experiment [1] is 100%; in experiment [2], 105%.
Turning to `O=C(c1cccc2c1CC[C@H]2N1Cc2cccc(Cl)c2C1=O)N1CCC2(CC1)CCN(c1ccncc1)CC2` [Example H-170, 7-Chloro-2-[(1R)-4-(9-pyridin-4-yl-3,9-diazaspiro[5.5]undecane-3-carbonyl)-2,3-dihydro-1H-inden-1-yl]-2,3-dihydro-isoindol-1-one], the inhibition at 10 µM was 56% in experiment [1] and 47% in experiment [2].
Take `O=C(NC1CCc2ccc(C(=O)N3CCC4(CC3)CCN(c3ccncc3)C4)cc21)c1ccc(Cl)s1` (centres unmarked) [Ind_CC-043, 5-chloro-N-[6-(2-pyridin-4-yl-2,8-diazaspiro[4.5]decane-8-carbonyl)-2,3-dihydro-1H-inden-1-yl]-thiophene-2-carboxylic acid amide]: the inhibition at 10 µM in experiment [1] worked out at 79%; in experiment [2], 88%.
As for `O=C(NC1CCc2ccc(C(=O)N3CCC4(CCN(Cc5ccc(F)cc5Cl)CC4)C3)cc21)c1ccccc1Cl` (centres unmarked) [IND_CC-556, 2-Chloro-N-[6-[8-[(2-chloro-4-fluoro-phenyl)-methyl]-2,8-diazaspiro[4.5]decane-2-carbonyl]-2,3-dihydro-1H-inden-1-yl]-benzamide], the inhibition at 10 µM in experiment [1] came out at 7%; in experiment [2], 100%.
Taken in the same sequence, the figures for `O=C(c1ccc2c(c1)C(NS(=O)(=O)CCc1ccccc1Cl)CC2)N1CCC2(CC1)CCN(c1ccncc1)CC2` (centres unmarked) [IND_CC-241, 2-(2-Chlorophenyl)-N-[6-(9-pyridin-4-yl-3,9-diazaspiro[5.5]undecane-3-carbonyl)-2,3-dihydro-1H-inden-1-yl]-ethanesulfonic acid amide] were 95% and 101%.
`O=C(N[C@@H]1CCc2cc(F)c(C(=O)N3CCC4(CC3)CCN(c3ccncc3)C4)cc21)c1ccccc1Cl` [Example H-89, 2-Chloro-N-[(1R)-5-fluoro-6-(3-pyridin-4-yl-3,8-diazaspiro[4.5]decane-8-carbonyl)-2,3-dihydro-1H-inden-1-yl]-benzamide]: the values for the inhibition at 10 µM in experiment [1] and in experiment [2] were 99% and 103%, respectively.
In the case of `CC1(C)CC(NC(=O)c2ccccc2C(F)(F)F)c2cc(C(=O)N3CCC4(CC3)CCN(c3ccncc3)CC4)ccc21` (centres unmarked) [Ind_CC-058, N-[3,3-dimethyl-6-(9-pyridin-4-yl-3,9-diazaspiro[5.5]undecane-3-carbonyl)-1,2-dihydro-inden-1-yl]-2-(trifluoromethyl)-benzamide], the values for the inhibition at 10 µM in experiment [1] and in experiment [2] were 100% and 101%, respectively.
In the case of `CC1(C)CC(NC(=O)c2cc(F)ccc2Cl)c2cc(C(=O)N3CCC4(CC3)CCN(c3ccncc3)CC4)ccc21` (centres unmarked) [IND_CC-252, 2-Chloro-N-[3,3-dimethyl-6-(3-pyridin-4-yl-3,9-diazaspiro[5.5]undecane-9-carbonyl)-1,2-dihydro-inden-1-yl]-5-fluoro-benzamide], the values for the inhibition at 10 µM in experiment [1] and in experiment [2] were 100% and 102%, respectively.
`O=C(NC1CCc2ccc(C(=O)N3CCC4(CCC(O)(c5ccncc5)CC4)C3)cc21)c1ccccc1Cl` (centres unmarked) [Example H-128, 2-Chloro-N-[6-(8-hydroxy-8-pyridin-4-yl-3-azaspiro[4.5]decane-3-carbonyl)-2,3-dihydro-1H-inden-1-yl]-benzamide]: the inhibition at 10 µM is 38% in experiment [1] and 36% in experiment [2].
As to `CN(C)C1(c2ccc(F)cc2)CCC2(CCN(C(=O)c3ccc4c(c3)C(NC(=O)c3ccccc3Cl)CC4)CC2)CC1` (centres unmarked) [Ind_CC-099, 2-chloro-N-[6-[9-dimethylamino-9-(4-fluorophenyl)-3-azaspiro[5.5]undecane-3-carbonyl]-2,3-dihydro-1H-inden-1-yl]-benzamide], the inhibition at 10 µM in experiment [1] turned out to be 39%; in experiment [2] it was 103%.
Take `O=C(NC1CCc2ccc(C(=O)N3CCC4(CCN(Cc5ccc6nccnc6c5)CC4)C3)cc21)c1ccccc1Cl` (centres unmarked) [IND_CC-568, 2-Chloro-N-[6-[8-(quinoxalin-6-yl-methyl)-2,8-diazaspiro[4.5]decane-2-carbonyl]-2,3-dihydro-1H-inden-1-yl]-benzamide]: the values for the inhibition at 10 µM in experiment [1] and in experiment [2] were 20% and 105%, respectively.
Regarding `O=C(NC1CCc2ccc(C(=O)N3CCC4(CCN(C(=O)C5CC5)CC4)C3)cc21)c1ccccc1Cl` (centres unmarked) [IND_CC-573, 2-Chloro-N-[6-[8-(cyclopropanecarbonyl)-2,8-diazaspiro[4.5]decane-2-carbonyl]-2,3-dihydro-1H-inden-1-yl]-benzamide], the inhibition at 10 µM is 43% in experiment [1] and 100% in experiment [2].
Consider `O=C(NC1CCc2ccc(C(=O)N3CCC4(CC3)CCN(c3ccc(C(F)(F)F)cc3)CC4)cc21)c1ccccc1Cl` (centres unmarked) [IND_CC-290, 2-Chloro-N-[6-[9-[4-(trifluoromethyl)-phenyl]-3,9-diazaspiro[5.5]undecane-3-carbonyl]-2,3-dihydro-1H-inden-1-yl]-benzamide], for which the inhibition at 10 µM in experiment [1] was 35%; in experiment [2] it was 100%.
Taken in the same sequence, the figures for `Cc1cccc(C)c1C(=O)NC1CCc2ccc(C(=O)N3CCC4(CCN(c5ccncc5)CC4)C3)cc21` (centres unmarked) [IND_CC-310, 2,6-Dimethyl-N-[6-(8-pyridin-4-yl-2,8-diazaspiro[4.5]decane-2-carbonyl)-2,3-dihydro-1H-inden-1-yl]-benzamide] were 100% and 104%.
For the compound `O=C(N[C@@H]1CCc2c(C(=O)N3CCC4(CCN(c5ccncc5)CC4)C3)cccc21)c1ccccc1Cl` [Example H-162, 2-Chloro-N-[(1R)-4-(8-pyridin-4-yl-3,8-diazaspiro[4.5]decane-3-carbonyl)-2,3-dihydro-1H-inden-1-yl]-benzamide], the inhibition at 10 µM in experiment [1] came out at 13%; in experiment [2], 61%.
